Key:
Type in all cases: physicochemical
[1] = Solubility of glycerol-containing formulations (post vortexing, 30 min and overnight at 18° C.); conditions: compound 2 mg/mL; for solubility at 30 min / solubility / solubility at 30 s: glycerol-containing formulation; for solubility at 30 min / solubility: 18 °C; for solubility at 30 min: after 30 minutes incubation at 18° C.; for solubility at 30 s: post vortexing
Experimental: (§1) Tables 3A, 3B, and 3C describe solubility experiments conducted with the indicated compounds under the listed conditions. Vortexing was conducted using a Denville Vortexer 59 (Denville Scientific Inc.), at maximum speed for 30 seconds. As used herein, the term overnight refers to a period lasting at least about 12-24 hours.

[2] = Solubility of BSA-containing formulations (post vortexing, 30 min and overnight at 18° C.); conditions: compound 2 mg/mL; for solubility at 30 min / solubility: BSA-containing formulation, 18 °C, aqueous with cosolvent or surfactant or cyclodextrin; for solubility at 30 min: after 30 minutes incubation at 18° C.
Experimental: Vortexing was conducted using a Denville Vortexer 59 (Denville Scientific Inc.), at maximum speed for 30 seconds. As used herein, the term overnight refers to a period lasting at least about 12-24 hours.

[3] = Solubility of sodium deoxycholate-containing formulations (post vortexing, 30 min and overnight at 18° C.); conditions: compound 2 mg/mL; for solubility at 30 s: post vortexing
Experimental: as §1, with “5A, 5B,” for “3A, 3B,”, “5C” for “3C”

Solubility of glycerol-containing formulations after overnight incubation at 18° C., 50% ([1]; 50% glycerol, overnight incubation at 18° C.): MFG | solubility at 30 min ([1]; aqueous with cosolvent or surfactant or cyclodextrin, 10% glycerol, read-out: Solubility of glycerol-containing formulations after 30 min incubation at 18° C., 10%): < 2000 µg/mL | solubility ([1]; aqueous with cosolvent or surfactant or cyclodextrin, 10% glycerol, overnight incubation at 18° C., read-out: Solubility of glycerol-containing formulations after overnight incubation at 18° C., 10%): < 2000 µg/mL | solubility at 30 min ([1]; aqueous with cosolvent or surfactant or cyclodextrin, 20% glycerol, read-out: Solubility of glycerol-containing formulations after 30 min incubation at 18° C., 20%): < 2000 µg/mL | solubility ([1]; aqueous with cosolvent or surfactant or cyclodextrin, 20% glycerol, overnight incubation at 18° C., read-out: Solubility of glycerol-containing formulations after overnight incubation at 18° C., 20%): < 2000 µg/mL | solubility at 30 min ([1]; aqueous with cosolvent or surfactant or cyclodextrin, 30% glycerol, read-out: Solubility of glycerol-containing formulations after 30 min incubation at 18° C., 30%): < 2000 µg/mL | solubility ([1]; aqueous with cosolvent or surfactant or cyclodextrin, 30% glycerol, overnight incubation at 18° C., read-out: Solubility of glycerol-containing formulations after overnight incubation at 18° C., 30%): < 2000 µg/mL | solubility at 30 min ([1]; aqueous with cosolvent or surfactant or cyclodextrin, 40% glycerol, read-out: Solubility of glycerol-containing formulations after 30 min incubation at 18° C., 40%): < 2000 µg/mL | solubility ([1]; aqueous with cosolvent or surfactant or cyclodextrin, 40% glycerol, overnight incubation at 18° C., read-out: Solubility of glycerol-containing formulations after overnight incubation at 18° C., 40%): < 2000 µg/mL | solubility at 30 min ([1]; aqueous with cosolvent or surfactant or cyclodextrin, 50% glycerol, read-out: Solubility of glycerol-containing formulations after 30 min incubation at 18° C., 50%): > 2000 µg/mL | solubility at 30 min ([1]; 0% glycerol, read-out: Solubility of glycerol-containing formulations after 30 min incubation at 18° C., 0%): < 2000 µg/mL | solubility ([1]; 0% glycerol, overnight incubation at 18° C., read-out: Solubility of glycerol-containing formulations after overnight incubation at 18° C., 0%): < 2000 µg/mL | solubility at 30 s ([1]; aqueous with cosolvent or surfactant or cyclodextrin, 10% glycerol, read-out: Solubility of glycerol-containing formulations post vortexing, 10%): < 2000 µg/mL | solubility at 30 s ([1]; aqueous with cosolvent or surfactant or cyclodextrin, 20% glycerol, read-out: Solubility of glycerol-containing formulations post vortexing, 20%): < 2000 µg/mL | solubility at 30 s ([1]; aqueous with cosolvent or surfactant or cyclodextrin, 30% glycerol, read-out: Solubility of glycerol-containing formulations post vortexing, 30%): < 2000 µg/mL | solubility at 30 s ([1]; aqueous with cosolvent or surfactant or cyclodextrin, 40% glycerol, read-out: Solubility of glycerol-containing formulations post vortexing, 40%): < 2000 µg/mL | solubility at 30 s ([1]; aqueous with cosolvent or surfactant or cyclodextrin, 50% glycerol, read-out: Solubility of glycerol-containing formulations post vortexing, 50%): > 2000 µg/mL | solubility at 30 s ([1]; 0% glycerol, read-out: Solubility of glycerol-containing formulations post vortexing, 0%): < 2000 µg/mL | solubility at 30 min ([2]; BSA 5 mg/mL, read-out: Solubility of BSA-containing formulations after 30 min incubation at 18° C., 5 mg/mL): < 2000 µg/mL | solubility at 30 min ([2]; BSA 10 mg/mL, read-out: Solubility of BSA-containing formulations after 30 min incubation at 18° C., 10 mg/mL): < 2000 µg/mL | solubility at 30 min ([2]; BSA 15 mg/mL, read-out: Solubility of BSA-containing formulations after 30 min incubation at 18° C., 15 mg/mL): < 2000 µg/mL | solubility at 30 min ([2]; BSA 25 mg/mL, read-out: Solubility of BSA-containing formulations after 30 min incubation at 18° C., 25 mg/mL): > 2000 µg/mL | solubility at 30 min ([2]; BSA 80 mg/mL, read-out: Solubility of BSA-containing formulations after 30 min incubation at 18° C., 80 mg/mL): > 2000 µg/mL | solubility ([2]; BSA 80 mg/mL, overnight incubation at 18° C., read-out: Solubility of BSA-containing formulations after overnight incubation at 18° C., 80 mg/mL): > 2000 µg/mL | solubility at 30 min ([2]; BSA 100 mg/mL, read-out: Solubility of BSA-containing formulations after 30 min incubation at 18° C., 100 mg/mL): > 2000 µg/mL | solubility ([2]; BSA 100 mg/mL, overnight incubation at 18° C., read-out: Solubility of BSA-containing formulations after overnight incubation at 18° C., 100 mg/mL): > 2000 µg/mL | Solubility of BSA-containing formulations after overnight incubation at 18° C., 5 mg/mL ([2]; BSA 5 mg/mL, overnight incubation at 18° C.): MFG | Solubility of BSA-containing formulations after overnight incubation at 18° C., 10 mg/mL ([2]; BSA 10 mg/mL, overnight incubation at 18° C.): MFG | Solubility of BSA-containing formulations after overnight incubation at 18° C., 15 mg/mL ([2]; BSA 15 mg/mL, overnight incubation at 18° C.): MFG | Solubility of BSA-containing formulations after overnight incubation at 18° C., 25 mg/mL ([2]; BSA 25 mg/mL, overnight incubation at 18° C.): MFG | Solubility of sodium deoxycholate-containing formulations after 30 min incubation at 18° C., 50 mg/mL ([3]; sodium deoxycholate 50 mg/mL, after 30 minutes incubation at 18° C.): MFG | Solubility of sodium deoxycholate-containing formulations after 30 min incubation at 18° C., 100 mg/mL ([3]; sodium deoxycholate 100 mg/mL, after 30 minutes incubation at 18° C.): MFG | solubility at 30 s ([3]; sodium deoxycholate-containing formulation, aqueous with cosolvent or surfactant or cyclodextrin, sodium deoxycholate 12.5 mg/mL, read-out: Solubility of sodium deoxycholate-containing formulations post vortexing, 12.5 mg/mL): < 2000 µg/mL | solubility at 30 s ([3]; sodium deoxycholate-containing formulation, aqueous with cosolvent or surfactant or cyclodextrin, sodium deoxycholate 25 mg/mL, read-out: Solubility of sodium deoxycholate-containing formulations post vortexing, 25 mg/mL): < 2000 µg/mL | solubility at 30 s ([3]; sodium deoxycholate-containing formulation, aqueous with cosolvent or surfactant or cyclodextrin, sodium deoxycholate 50 mg/mL, read-out: Solubility of sodium deoxycholate-containing formulations post vortexing, 50 mg/mL): < 2000 µg/mL | solubility at 30 s ([3]; sodium deoxycholate-containing formulation, aqueous with cosolvent or surfactant or cyclodextrin, sodium deoxycholate 100 mg/mL, read-out: Solubility of sodium deoxycholate-containing formulations post vortexing, 100 mg/mL): < 2000 µg/mL | solubility at 30 min ([3]; sodium deoxycholate-containing formulation, aqueous with cosolvent or surfactant or cyclodextrin, sodium deoxycholate 12.5 mg/mL, after 30 minutes incubation at 18° C.): < 2000 µg/mL | solubility ([3]; sodium deoxycholate-containing formulation, aqueous with cosolvent or surfactant or cyclodextrin, sodium deoxycholate 12.5 mg/mL, overnight incubation at 18° C., read-out: Solubility of sodium deoxycholate-containing formulations after overnight incubation at 18° C., 12.5 mg/mL): < 2000 µg/mL
Structure (SMILES): CCN1/C(=C/C=C/c2sc3ccccc3[n+]2CC)Sc2ccccc21 [JAC-B1, 3′,3′-Diethylthiacarbocyanine iodide]
